According to ChEMBL document CHEMBL1129315, “Studies on selectin blockers. 2. Novel selectin blocker as potential therapeutics for inflammatory disorders” (J Med Chem, 1996):

Columns and labels:
P-selectin = biological target: T1, P-selectin (Homo sapiens, UniProt P16109); assay: Inhibitory concentration against blocking of Selectin P during migration of inflammatory cells to inflammatory site
T1 sequence (P16109 whole entry): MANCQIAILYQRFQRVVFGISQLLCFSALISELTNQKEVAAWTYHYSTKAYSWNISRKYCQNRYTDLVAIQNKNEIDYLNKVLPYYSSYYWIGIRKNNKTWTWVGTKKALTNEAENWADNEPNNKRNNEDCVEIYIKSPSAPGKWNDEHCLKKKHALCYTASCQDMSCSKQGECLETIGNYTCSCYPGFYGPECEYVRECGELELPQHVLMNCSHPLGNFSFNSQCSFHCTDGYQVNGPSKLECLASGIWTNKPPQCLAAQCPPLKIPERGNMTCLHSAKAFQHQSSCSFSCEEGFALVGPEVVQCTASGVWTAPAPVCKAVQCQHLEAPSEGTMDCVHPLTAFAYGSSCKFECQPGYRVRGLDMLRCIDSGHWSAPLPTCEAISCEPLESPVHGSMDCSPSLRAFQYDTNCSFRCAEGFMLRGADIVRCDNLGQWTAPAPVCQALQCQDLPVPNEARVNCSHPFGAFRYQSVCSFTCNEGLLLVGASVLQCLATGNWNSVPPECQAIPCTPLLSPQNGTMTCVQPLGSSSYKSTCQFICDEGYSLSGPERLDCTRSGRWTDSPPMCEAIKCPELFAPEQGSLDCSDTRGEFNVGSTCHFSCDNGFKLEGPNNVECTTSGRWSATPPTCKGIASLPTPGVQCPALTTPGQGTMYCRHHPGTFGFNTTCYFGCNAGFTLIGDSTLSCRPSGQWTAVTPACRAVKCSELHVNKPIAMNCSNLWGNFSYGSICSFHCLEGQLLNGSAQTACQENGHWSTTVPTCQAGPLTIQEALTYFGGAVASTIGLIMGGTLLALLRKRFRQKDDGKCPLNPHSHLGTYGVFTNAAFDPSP

E-selectin = biological target: T2, E-selectin (Homo sapiens, UniProt P16581); assay: Inhibitory concentration against blocking of E-selectin during migration of inflammatory cells to inflammatory site
T2 sequence (P16581 whole entry): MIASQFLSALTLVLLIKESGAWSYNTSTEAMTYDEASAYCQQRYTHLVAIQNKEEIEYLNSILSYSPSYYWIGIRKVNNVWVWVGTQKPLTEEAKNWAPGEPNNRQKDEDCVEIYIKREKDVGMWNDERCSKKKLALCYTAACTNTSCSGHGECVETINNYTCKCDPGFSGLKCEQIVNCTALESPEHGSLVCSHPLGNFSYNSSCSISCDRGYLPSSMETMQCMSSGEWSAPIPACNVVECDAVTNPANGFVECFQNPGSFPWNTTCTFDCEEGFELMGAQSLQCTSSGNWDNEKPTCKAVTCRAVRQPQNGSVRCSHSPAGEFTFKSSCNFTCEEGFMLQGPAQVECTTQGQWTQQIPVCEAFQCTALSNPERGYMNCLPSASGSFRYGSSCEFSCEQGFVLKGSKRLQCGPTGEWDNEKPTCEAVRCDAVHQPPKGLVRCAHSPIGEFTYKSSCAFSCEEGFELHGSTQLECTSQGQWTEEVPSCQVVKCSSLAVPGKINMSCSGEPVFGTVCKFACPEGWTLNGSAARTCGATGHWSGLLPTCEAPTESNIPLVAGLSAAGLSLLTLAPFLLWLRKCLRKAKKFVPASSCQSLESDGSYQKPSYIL

L-selectin = biological target: T3, L-selectin (Homo sapiens, UniProt P14151); assay: Inhibitory concentration against blocking of Selectin L during migration of inflammatory cells to inflammatory site
T3 sequence (P14151 whole entry): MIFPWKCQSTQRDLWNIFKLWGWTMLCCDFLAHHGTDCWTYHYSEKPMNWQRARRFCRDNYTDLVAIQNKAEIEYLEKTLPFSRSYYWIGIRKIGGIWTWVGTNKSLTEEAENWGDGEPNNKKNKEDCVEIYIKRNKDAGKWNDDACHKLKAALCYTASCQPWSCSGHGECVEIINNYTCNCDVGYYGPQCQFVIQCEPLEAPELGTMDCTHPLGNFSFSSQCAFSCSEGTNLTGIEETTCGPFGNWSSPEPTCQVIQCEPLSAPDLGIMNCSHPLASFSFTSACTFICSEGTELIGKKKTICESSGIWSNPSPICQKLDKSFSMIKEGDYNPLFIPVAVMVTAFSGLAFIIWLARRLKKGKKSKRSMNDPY

SMILES | IC50 (P-selectin) [µM] | IC50 (E-selectin) [µM] | IC50 (L-selectin) [µM]
CC1OC(OC2C(O)COC(CO)C2OC2OC(CO)C(O)C(OS(=O)(=O)O)C2O)C(O)C(O)C1O (stereo not given) | 300 | > 1000 | > 1000
CC(=O)N[C@H]1[C@H]([C@H](O)[C@H](O)CO)O[C@@](O[C@H]2[C@@H](O)[C@@H](CO)O[C@@H](O[C@@H]([C@H](O[C@@H]3O[C@@H](C)[C@@H](O)[C@@H](O)[C@@H]3O)[C@H](C=O)NC(C)=O)[C@H](O)CO)[C@@H]2O)(C(=O)O)C[C@@H]1O [SIALYL LEWIS X] | > 1000 | – | > 1000
